Data taken from US20030130484A1, “Inhibitors and disassemblers of fibrillogenesis” (priority 2001, published 2003).

Columns and labels:
[1] = Circular dichroism under denaturing conditions (urea, pH, GuHCl, temperature); assay type: physicochemical; details: pH 2.5-10.5, 8M GuHCl, 20° and 70° C.
Procedure: (§1) A 1 mm or 0.1 mm pathlength cell was used for measurements, depending on the concentration of the solution. Six to eight scans were acquired from 250 nm to 200 nm. For the pH experiment, a 100 mM phosphate-citrate buffer was used for pH 2.5-6.5, a 100 mM phosphate buffer was used for pH 7.5-8.5 and a 100 mM glycine-NaOH buffer was used for pH 9.5-10.5.
as §1, with “The circular dichroic (CD) spectra were recorded using a Jasco P715 spectropolarimeter. […] A” for “A”, “9.5-10.5. For the urea denaturation experiment, Ad 16-20m was dissolved in 100 mM phosphate buffer pH 7.4 with 0-8.5 M urea.” for “9.5-10.5.”

[2] = target: Aβ40 fibrils (Homo sapiens, UniProt P05067)
[3] = Solubility in aqueous media and organic solvents
[4] = target: Aβ40 (Homo sapiens, UniProt P05067); assay: Inhibition of Aβ40 fibrillogenesis, thioflavin T fluorescence assay; assay type: biochemical
[5] = Calcein leakage assay; assay type: in vitro ADME; parameters: calcein escaped from the vesicles: dose or concentration left out as unconfirmed
Procedure: The leakage of vesicle contents was monitored by measuring the release of calcein (Terzi et al., 1995 and Pillot et al, 1996). Vesicles were prepared and separated from free calcein as described above for the radioactive compounds, except that the rehydration buffer contained […] calcein and 10 mM Na-EDTA. In the kinetic assay, peptide was added to the vesicle solution and the fluorescence was measured at ten minute intervals with excitation and emission wavelengths of 490 and 520 nm, respectively. Data were fit to an equation for a first order rate process. For the concentration dependence assay, different amounts of peptide were added to the vesicle solution and the fluorescence was measured after a two hour incubation at 37° C. The maximum leakage was determined by lysing the vesicles with the addition of 0.5% (w/v) Triton X-100.
The leakage of vesicle contents was monitored by measuring the release of calcein (Terzi et al., 1995; Pillot et al., 1996). Vesicles were prepared and separated from free calcein as described herein for the radioactive compounds, except that the rehydration buffer contained 40 mM calcein and 1 mM Na-EDTA. […] The maximum fluorescence was measured by lysing the vesicles with the addition of 0.1% (w/v) Triton X-100.

[6] = target: PrP106-126 (Homo sapiens, UniProt P04156); assay type: biochemical
Chain of PrP106-126 (P04156 106-126 limits assumed): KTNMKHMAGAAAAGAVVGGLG

Chain of Aβ40 fibrils (P05067 672-711): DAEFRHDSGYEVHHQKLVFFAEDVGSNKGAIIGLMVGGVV
Chain of Aβ40 (P05067 672-711): as above

CC(=O)N[C@@H](CCCCN)C(=O)N(C)[C@@H](CC(C)C)C(=O)N[C@H](C(=O)N(C)[C@@H](Cc1ccccc1)C(=O)N[C@@H](Cc1ccccc1)C(N)=O)C(C)C [Aβ16-20m, Ac—NH—K(me-L)V(me-F)F—CONH2]
stability of peptide structure by CD (mean residue ellipticity at 226 nm) [1]: extremely stable and resistant to chemical denaturation | half-life [2]: 24 ± 7 min | solubility [3]: ≥ 30 mM | solubility in aqueous media (in words) [3]: highly soluble in aqueous media | solubility in organic solvents (in words) ([3]; DMF, diethyl ether, methylene chloride, chloroform): highly soluble | effect on Aβ40 fibril formation (in words) [4]: highly effective inhibitor | leakage of calcein from vesicles (in words) [5]: causes the leakage of calcein | calcein escaped from the vesicles ([5]; highest concentration tested): 82% | calcein efflux ([5]; low micromolar concentrations of peptide): less than 10% | inhibition of fibril formation by PrP106-126 [6]: ineffective
